The values that follow come from patent publication US11851712B2, “Replication stress response biomarkers for immunotherapy response” (Board of Regents, The University of Texas System, priority 2018, dated 2023).

For assay [1], the system named is GBM patients. The conditions noted are these: neoadjuvant treatment, Cloughesy et al. (2019); cited from earlier work.
Assay [2] relates to MDM2 phosphorylation. As to the kind of experiment: Western blot of MDM2 phosphorylation. Format: cell-based, human. The conditions noted are these: 0.1 μM SCH772984 for 48 hours vs DMSO.
The subject of assay [3] is p53. As to the kind of experiment: Western blot of p53 levels. The class given is cell-based, human. The conditions noted are these: 0.1 μM SCH772984 for 48 hours vs DMSO.
Assay [4] relates to p21. As to the kind of experiment: Western blot of p21 protein. The class given is cell-based, human. As to conditions: 0.5 μM AZD6244 or 0.1 μM SCH772984 for 48 hours, doxycycline 2 μg/mL.
Assay [5] relates to RSRD cells (MCF-10A cyclin E). As to the kind of experiment: Senescence assay (senescence-associated β galactosidase staining). The class given is cell-based, human. As to conditions: 0.5 μM AZD6244 (MEKi) or 0.1 μM ERKi (SCH772984) for 48 hours. The method, then:
Senescence assay. shCTRL, shCTRL_cycE, and RSRD cells (5×10^4) were seeded in 6 wells for 48 h prior to treatment with MEK or ERK inhibitors in presence or absence of 2 μg/mL doxycycline to induce cyclin E expression. After the addition of these inhibitors, cells were cultured for another 48 h. Next, a senescence assay was performed using the senescence β-galactosidase staining kit according to the manufacturer's protocol. The percentage of senescent cells was calculated using the ratio of SA-βgal-positive cells to total cells. Mammosphere Formation Assay RSR defect model cells (5000) were seeded in an ultra-low-attachment surface 6-well plate (Corning) in mammosphere medium (50% DMEM, 50% DMEM/F12, […] hydrocortisone, 10 μg/mL insulin, 20 ng/mL recombinant EGF, 100 ng/mL cholera toxin) for 7 days in presence or absence of 2 μg/mL doxycycline to induce cyclin E expression. Spheres with diameters larger than 50 μm were scored as mammospheres.

For assay [6], the system named is breast cancer cell lines / MCF10A shATR over-expressing cyclin E. As to the kind of experiment: Aldehyde dehydrogenase assay (Aldefluor, flow cytometry), CSC depletion. Format: cell-based, human. The conditions noted are these: 48 hours, AZD6244 0.5 or 1.0 μM, SCH772984 0.1 or 1.0 μM, MDA-MB-231, MDA-MB-436, MCF7-stem, M158, 4T1. The method, then:
Aldehyde dehydrogenase assay. Aldehyde dehydrogenase was detected using the Aldefluor kit ([…] Technologies) per the manufacturer's instructions. In brief, 1×10^6 cells/mL were incubated with Aldefluor reagent in presence or absence of ALDH inhibitor DEAB for 45 minutes at 37° C. Cells were washed, re-suspended in ALDH buffer, and analyzed by flow cytometry. Positive cells were gated relative to the DEAB-treated negative control. In some instances, cells were treated with AZD6244, SCH772984, or 2 μg/mL doxycycline 48 hours prior to analysis.

Assay [7] concerns the target ATR (Homo sapiens, UniProt Q13535). The conditions noted are these: read-out: kinase inhibition IC50; cited from earlier work.
Assay [8] has as its system 4T1 murine mammary carcinoma. As to the kind of experiment: 4T1 murine mammary carcinoma in syngeneic mice, combination with anti-PD1. Format: in vivo. As to conditions: 25 mg/kg AZD7762 plus 10 mg/kg anti-PD1 (clone RMP1-14), Balb\C mice. The source says: FIG. 18. […] The 4T1 murine mammary carcinoma was implanted into syngeneic (Balb\C) mice and allowed to grow to ˜[…] before randomization.

The subject of assay [9] is MCF10A shATR cells. As to the kind of experiment: Stem cell score from gene expression. The class given is cell-based, human. As to conditions: 48 hours, 0.5 μM AZD6244, MCF10A shATR cells. The method, then: Microarrays. Microarray analysis was conducted as described previously (Peng et al., 2014). Specifically, total RNA was extracted from the cells 48 hours after plating in presence or absence of doxycycline using a QIAGEN RNeasy RNA isolation kit. Complementary RNA was generated using a TotalPrep RNA amplification kit and loaded onto a HumanHT-12 v4 Expression BeadChip for analysis using the manufacturer's procedure.
Expression signature score. Expression signature scores were computed based on correlation coefficient between the coefficients in the gene signature and corresponding expression level in a given sample (McGrail et al., 2017; van de Vijver et al., 2002), with higher values representing a stronger correlation.

Sequence of ATR (Q13535 whole entry): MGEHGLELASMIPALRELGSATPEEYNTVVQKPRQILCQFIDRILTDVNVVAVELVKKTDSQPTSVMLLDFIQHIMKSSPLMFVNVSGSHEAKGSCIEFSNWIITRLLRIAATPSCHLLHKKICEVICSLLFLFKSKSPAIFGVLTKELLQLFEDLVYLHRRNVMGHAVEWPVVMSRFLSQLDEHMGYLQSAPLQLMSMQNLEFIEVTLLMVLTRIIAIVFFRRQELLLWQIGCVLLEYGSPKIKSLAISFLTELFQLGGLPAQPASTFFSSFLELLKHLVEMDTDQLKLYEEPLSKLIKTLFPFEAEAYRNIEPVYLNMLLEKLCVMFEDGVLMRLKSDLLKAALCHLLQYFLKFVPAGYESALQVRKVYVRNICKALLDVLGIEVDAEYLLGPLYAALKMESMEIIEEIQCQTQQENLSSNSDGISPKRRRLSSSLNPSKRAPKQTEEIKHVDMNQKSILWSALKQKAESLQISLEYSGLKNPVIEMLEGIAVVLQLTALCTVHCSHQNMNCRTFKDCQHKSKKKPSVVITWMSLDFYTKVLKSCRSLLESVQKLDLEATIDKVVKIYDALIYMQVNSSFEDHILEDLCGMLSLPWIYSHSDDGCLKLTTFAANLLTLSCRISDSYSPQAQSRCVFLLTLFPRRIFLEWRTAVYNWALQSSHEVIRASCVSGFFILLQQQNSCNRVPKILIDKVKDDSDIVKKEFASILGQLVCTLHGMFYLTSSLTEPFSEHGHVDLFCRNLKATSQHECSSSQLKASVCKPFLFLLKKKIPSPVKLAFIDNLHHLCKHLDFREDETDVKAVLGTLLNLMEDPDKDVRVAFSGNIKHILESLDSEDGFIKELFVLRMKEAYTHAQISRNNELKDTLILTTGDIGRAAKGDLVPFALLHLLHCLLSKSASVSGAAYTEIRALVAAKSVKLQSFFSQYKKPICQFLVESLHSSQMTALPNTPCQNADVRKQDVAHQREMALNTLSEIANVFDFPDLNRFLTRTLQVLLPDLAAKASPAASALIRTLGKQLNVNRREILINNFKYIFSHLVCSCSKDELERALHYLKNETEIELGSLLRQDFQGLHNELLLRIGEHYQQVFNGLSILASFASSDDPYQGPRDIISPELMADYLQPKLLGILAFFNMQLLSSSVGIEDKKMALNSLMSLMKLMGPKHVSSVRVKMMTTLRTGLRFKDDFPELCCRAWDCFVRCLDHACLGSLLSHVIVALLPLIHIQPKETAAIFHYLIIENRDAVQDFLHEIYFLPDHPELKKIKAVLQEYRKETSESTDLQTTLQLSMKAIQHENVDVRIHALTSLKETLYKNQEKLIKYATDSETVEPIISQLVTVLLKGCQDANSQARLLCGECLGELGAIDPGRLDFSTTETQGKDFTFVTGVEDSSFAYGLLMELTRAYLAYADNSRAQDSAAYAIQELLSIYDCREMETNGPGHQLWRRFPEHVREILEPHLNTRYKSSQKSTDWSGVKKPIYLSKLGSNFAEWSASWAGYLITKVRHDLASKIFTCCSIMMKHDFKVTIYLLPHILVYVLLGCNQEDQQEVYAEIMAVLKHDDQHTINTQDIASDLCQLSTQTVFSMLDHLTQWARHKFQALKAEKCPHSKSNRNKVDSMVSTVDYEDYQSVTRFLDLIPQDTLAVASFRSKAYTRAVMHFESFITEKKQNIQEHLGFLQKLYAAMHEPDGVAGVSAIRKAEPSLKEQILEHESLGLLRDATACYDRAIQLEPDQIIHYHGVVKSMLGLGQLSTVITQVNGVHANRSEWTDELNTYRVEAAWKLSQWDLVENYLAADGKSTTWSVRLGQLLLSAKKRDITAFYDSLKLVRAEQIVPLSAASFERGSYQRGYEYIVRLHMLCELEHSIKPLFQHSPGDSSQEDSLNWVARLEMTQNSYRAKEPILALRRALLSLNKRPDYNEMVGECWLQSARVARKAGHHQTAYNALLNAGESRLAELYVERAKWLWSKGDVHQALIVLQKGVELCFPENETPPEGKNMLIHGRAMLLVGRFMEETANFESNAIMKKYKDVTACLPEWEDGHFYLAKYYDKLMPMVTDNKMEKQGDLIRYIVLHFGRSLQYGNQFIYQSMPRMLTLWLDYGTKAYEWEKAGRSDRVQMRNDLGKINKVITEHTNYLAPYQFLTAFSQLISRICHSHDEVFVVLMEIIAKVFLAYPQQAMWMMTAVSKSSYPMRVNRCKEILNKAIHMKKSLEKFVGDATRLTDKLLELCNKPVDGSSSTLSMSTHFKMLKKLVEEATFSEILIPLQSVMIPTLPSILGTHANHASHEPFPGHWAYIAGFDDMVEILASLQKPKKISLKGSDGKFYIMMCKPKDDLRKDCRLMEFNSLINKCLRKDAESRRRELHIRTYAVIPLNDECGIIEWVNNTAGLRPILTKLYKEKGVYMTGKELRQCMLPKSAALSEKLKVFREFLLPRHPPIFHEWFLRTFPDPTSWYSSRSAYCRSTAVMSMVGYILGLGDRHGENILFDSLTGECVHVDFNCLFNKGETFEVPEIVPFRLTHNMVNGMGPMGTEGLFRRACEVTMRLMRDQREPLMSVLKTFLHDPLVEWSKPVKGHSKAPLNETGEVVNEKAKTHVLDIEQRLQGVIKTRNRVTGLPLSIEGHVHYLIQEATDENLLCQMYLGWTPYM
Sequence of ATR (Q8WXE1 whole entry partner): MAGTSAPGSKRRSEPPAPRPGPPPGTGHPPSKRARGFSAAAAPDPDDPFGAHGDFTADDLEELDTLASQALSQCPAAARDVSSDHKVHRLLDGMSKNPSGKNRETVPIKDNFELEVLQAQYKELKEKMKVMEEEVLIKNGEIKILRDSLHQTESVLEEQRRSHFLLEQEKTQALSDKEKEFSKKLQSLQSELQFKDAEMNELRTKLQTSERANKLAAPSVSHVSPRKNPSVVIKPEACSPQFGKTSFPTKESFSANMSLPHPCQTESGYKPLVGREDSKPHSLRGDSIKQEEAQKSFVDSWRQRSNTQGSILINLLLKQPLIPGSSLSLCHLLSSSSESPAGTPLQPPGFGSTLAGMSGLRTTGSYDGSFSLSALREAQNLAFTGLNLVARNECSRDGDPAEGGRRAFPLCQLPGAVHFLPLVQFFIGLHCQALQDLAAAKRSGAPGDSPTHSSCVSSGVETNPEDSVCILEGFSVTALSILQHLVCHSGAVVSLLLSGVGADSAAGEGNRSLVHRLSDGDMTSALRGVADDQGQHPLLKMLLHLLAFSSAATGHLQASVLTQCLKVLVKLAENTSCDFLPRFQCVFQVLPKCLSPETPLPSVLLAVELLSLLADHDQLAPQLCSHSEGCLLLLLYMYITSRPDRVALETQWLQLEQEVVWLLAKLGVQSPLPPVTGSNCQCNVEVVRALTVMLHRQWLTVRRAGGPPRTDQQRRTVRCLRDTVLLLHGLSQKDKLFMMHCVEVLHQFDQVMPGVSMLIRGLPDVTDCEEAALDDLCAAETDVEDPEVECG

As for “pembrolizumab: anti-PD-1 antibody described in WO2009/114335”, the improvement in survival in assay [1] was 6.2 month.
`O=C(Nc1ccc2[nH]nc(-c3ccncc3)c2c1)[C@@H]1CCN(CC(=O)N2CCN(c3ccc(-c4ncccn4)cc3)CC2)C1` [SCH772984]: the MDM2 phosphorylation result in assay [2] was “suppression of MDM2 phosphorylation”. In [3], the p53 levels entry was “negligible changes in p53 levels”. Further, the p21 protein expression result in [4] is reported as “recovers p21 protein expression”. The “oncogene-induced senescence by staining for senescence-associated β galactosidase” value in assay [5] was “restores oncogene-induced senescence”. In addition, in [6], the “CSC depletion by aldehyde dehydrogenase (ALDH) positivity” value was “CSCs are depleted”.
For the molecule `CS(=O)(=O)c1ccc(-c2cnc(N)c(C(=O)Nc3ccccc3)n2)cc1` [VE821], the IC50 in assay [7] was 15 nM.
Turning to `NC(=O)Nc1cc(-c2cccc(F)c2)sc1C(=O)N[C@H]1CCCNC1` [AZD7762], the “tumor growth, sensitization to immunotherapy” value in [8] was “sensitizes cells to immunotherapy”.
For `Cn1cnc2c(F)c(Nc3ccc(Br)cc3Cl)c(C(=O)NOCCO)cc21` [AZD6244], the Stem cell score result in [9] is “can reverse the stem-cell phenotype”. Besides, in [4], the p21 protein expression entry is recorded as “recovers p21 protein expression”. Besides, the “oncogene-induced senescence by staining for senescence-associated β galactosidase” value in assay [5] is given as “restores oncogene-induced senescence”. Moreover, the “CSC depletion by aldehyde dehydrogenase (ALDH) positivity” value in [6] is given as “CSCs are depleted”.
